Data set [1] deals with Colletotrichum lindemuthianum. Description: Example O: Colletotrichum lindemuthianum in vitro cell test, formula (II). It counts as cell-based. To be noted: 144 h, 6 days incubation, read-out: efficacy (inhibition of fungal growth; no direct activity); for inhibition at 10 ppm: 10 ppm of active ingredient; for inhibition at 20 ppm: 20 ppm of active ingredient. On the procedure: • Solvent: DMSO • Culture medium: 14.6 g anhydrous D-glucose (VWR), 7.1 g Mycological Peptone (Oxoid), 1.4 g granulated Yeast Extract (Merck), QSP 1 liter • Inoculum: spores suspension Fungicides were solubilized in DMSO and the solution used to prepare the required range of concentrations. The final concentration of DMSO used in the assay was: ≤[…]1%. A spore suspension of C. lindemuthianum was prepared and diluted to the desired spore density. Fungicides were evaluated for their ability to inhibit spores germination and mycelium growth in liquid culture assay. The compounds were added in the desired concentration to the culture medium with spores. After 6 days incubation, fungi-toxicity of compounds was determined by spectrometric measurement of mycelium growth. Inhibition of fungal growth was determined by comparing the absorbance values in wells containing the fungicides with the absorbance in control wells without fungicides.

Data set [2] has as its system Xanthomonas campestris pv. campestris. Description: Example P: Xanthomonas campestris pv. campestris in vitro cell test, formula (II). To be noted: 20 ppm of active ingredient, 24 h incubation, read-out: efficacy (inhibition of bacteria growth; no direct activity). The data set is classed as cell-based. On the procedure:
• Solvent: DMSO • Culture medium: LB broth medium (Luria Broth Miller) Sigma • Inoculum: bacteria suspension
Compounds were solubilized in DMSO and the solution used to prepare the required range of concentrations. The final concentration of DMSO used in the assay was ≤1%.
Inoculum was prepared from a pre-culture of bacteria grown in liquid medium and diluted to the desired optical density (OD).
Compounds were evaluated for their ability to inhibit bacteria growth in liquid culture assay. The compounds were added in the desired concentrations to culture medium containing the bacteria suspension. After 24 h of incubation, the efficacy of compounds was determined by spectrometric measurement of bacteria growth. Inhibition was determined by comparing the absorbance values in wells containing the compounds with the absorbance in control wells without active ingredients.

The nature of data set [3]: Log P by HPLC on reversed phase columns (EEC directive 79/831 Annex V.A8). The data set is classed as physicochemical. To be noted: for chromatographic logP: reversed phase HPLC columns. The gist of the method: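 Reversed-phase HPLC per EEC 79/831 Annex V.A8, LC-UV with 10→95% acetonitrile linear gradient; eluent [a] 0.1% formic acid (acidic), [b] 0.001 M ammonium acetate (neutral), [c] 0.1% phosphoric acid (acidic). Calibrated with C3–C16 straight-chain alkan-2-ones, linear interpolation of retention times; multiple values joined by "+".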

In data set [4] the test system is salicylate responsive promoter sequence of the PR1 (pathogenesis-related protein I) gene (AT2G14610). Briefly: Example A: induction of defense gene expression in Arabidopsis thaliana (PR1 promoter-GFP reporter plants), formula (I). To be noted: 300 ppm, 3rd day after spraying, mock treated leaves = 1.00. It counts as in vivo. The procedure: (§1) Arabidopsis thaliana reporter plants containing the coding sequence of a green fluorescent protein (GFP) linked to the salicylate responsive promoter sequence of the PR1 (pathogenesis-related protein I) gene (AT2G14610) were grown for five days and then sprayed with compounds. On the 3rd day after spraying, plant fluorescence was assessed with a MacroFluo instrument from Leica Microsystems (Wetzlar, Germany). Fluorescences were quantified with the Meta-Morph Microscopy Automation & Image Analysis Software (Molecular Devices, Sunnyvale, Calif., United States).
(§2) Background fluorescence in mock treated leaves was set as 1.00.

For data set [5] the test system is unchanged. Description: Example K: induction of defense gene expression in Arabidopsis thaliana (PR1 promoter-GFP reporter plants), formula (II). It counts as in vivo. Particulars: 300 ppm, 3rd day after spraying, mock treated leaves = 1.00. The procedure:
as §1, §2

The mark [6] stands for this setting: method [a]: LC-UV, acidic range, 0.1% formic acid in water and acetonitrile.
[7] abbreviates: value in preparation example, method not marked.

Experimental findings from patent US12642270B2, “Substituted thiophene carboxamides, thiophene carboxylic acids and derivatives thereof” (Bayer Aktiengesellschaft, priority 2019, dated 2026) are described below.

On to `COC(=O)c1sc(Cl)c(C#N)c1C` [II.028, methyl 5-chloro-4-cyano-3-methylthiophene-2-carboxylate], for which the inhibition (commonly how much of the control response was suppressed) at 10 ppm in data set [1] is not above 30%. In addition, the inhibition at 20 ppm in data set [1] and in data set [2] was not above 30% throughout. Also, the figures for the chromatographic logP in data set [3] (setting [6]) and in data set [3] (setting [7]) were 2.98 and 3.01, respectively.
With `Cc1c(C(=O)O)sc(C#N)c1Br` [II.042, 4-bromo-5-cyano-3-methylthiophene-2-carboxylic acid], the inhibition at 10 ppm in data set [1] is not above 30%. The inhibition at 20 ppm in data set [1] and in data set [2] was not above 30% in each case. Also, the chromatographic logP (as a rule, lipophilicity estimated from chromatographic retention) in data set [3] (setting [6]) worked out at 2.01.
`COC(=O)c1cc(Cl)c(C#N)s1` [II.046, methyl 4-chloro-5-cyanothiophene-2-carboxylate]: in data set [1], the inhibition at 10 ppm is not above 30%. For the same molecule, the inhibition at 20 ppm in data set [1] and in data set [2] was not above 30% in each case. The chromatographic logP in data set [3] (setting [6]) and in data set [3] (setting [7]) was 2.52 in each case.
With `COC(=O)c1cc(F)c(Br)s1` [II.049], the LogP in data set [3] (setting [6]) is 3.04^[a].
For `CC(C)COC(=O)c1cc(Cl)c(Br)s1` [II.050], in data set [3] (setting [6]), the LogP is 5.28^[a].
The same measure, in the same setting: then `COC(=O)c1sc(C#N)c(Br)c1C` [II.051], with 3.19^[a]; and `COC(=O)c1cc(Br)c(C#N)s1` [II.052], with 2.63^[a].
Take `CCOC(=O)c1sc(Cl)c(Cl)c1C#N` [II.053, ethyl 4,5-dichloro-3-cyanothiophene-2-carboxylate]: the chromatographic logP in data set [3] (setting [6]) and in data set [3] (setting [7]) was 3.54 in each case.
On to `COC(=O)c1sc(C#N)c(Br)c1Br` [II.054], for which the LogP in data set [3] (setting [6]) is 3.07^[a].
Take `COC(=O)c1sc(Br)c(Br)c1C(F)F` [II.055, methyl 4,5-dibromo-3-(difluoromethyl)thiophene-2-carboxylate]: the chromatographic logP in data set [3] (setting [6]) and in data set [3] (setting [7]) was 3.81 throughout.
In the case of `CCOC(=O)c1sc(I)c(Cl)c1Cl` [II.056], in data set [3] (setting [6]), the LogP is 4.57^[a].
On the same count and under the same terms, the value for `O=C(O)c1sc(I)c(Cl)c1Cl` [II.057] was 3.01^[a]; that for `COC(=O)c1sc(C)c(Cl)c1Cl` [II.058] was 3.49^[a]; that for `COC(=O)c1sc(F)c(Br)c1Cl` [II.059] was 3.44^[a].
Regarding `CC(C)COC(=O)c1sc(Cl)c(Br)c1F` [II.060], the LogP in data set [3] (setting [6]) was 5.28^[a].
Same read-out and setting: then `N#Cc1sc(C(=O)O)c(Br)c1Br` [II.061], with 1.66^[a]; and `CCOC(=O)c1cc(Cl)c(F)s1` [II.062], with 3.63^[a]; and `CCOC(=O)c1sc(C)c(Cl)c1Cl` [II.063], with 4.03^[a].
For `O=C(O)c1cc(Cl)c(F)s1` [II.064], in data set [3] (setting [6]), the LogP is 2.16^[a].
Same read-out and setting: the value for `Cc1sc(C(=O)O)c(Cl)c1Cl` [II.065] was 2.49^[a]; that for `CCOC(=O)c1sc(F)c(Br)c1Cl` [II.066] was 4.02^[a].
On the same count and under the same terms, then `CCOC(=O)c1sc(Cl)c(Br)c1F` [II.067], with 4.08^[a].
For the molecule `CCOC(=O)c1sc(C#N)c(Cl)c1Cl` [II.068], the LogP in data set [3] (setting [6]) is 3.50^[a].
Same read-out and setting: then `COC(=O)c1sc(Br)c(Br)c1C#N` [II.069], with 3.26^[a]; and `O=C(O)c1sc(Br)c(Cl)c1Br` [II.070], with 2.41^[a]; and `COC(=O)c1sc(Br)c(Cl)c1Br` [II.071], with 4.01^[a].
Consider `CCOC(=O)c1cc(Cl)c(C#N)s1` [II.072], for which the LogP in data set [3] (setting [6]) was 3.10^[a].
Regarding `CCOC(=O)c1sc(Cl)c(C)c1Cl` [II.073], in data set [3] (setting [6]), the LogP was 4.59^[a].
On the same count and under the same terms, the value for `Cc1c(Cl)sc(C(=O)O)c1Cl` [II.074] was 2.76^[a]; that for `COC(=O)c1sc(Br)c(C(F)F)c1Br` [II.075] was 3.54^[a]; that for `O=C(O)c1sc(F)c(Br)c1Cl` [II.076] was 2.19^[a].
On to `COC(=O)c1sc(Cl)c(Br)c1C#N` [II.077], for which the LogP in data set [3] (setting [6]) was 2.99^[a].
Same read-out and setting: the value for `O=C(O)c1sc(Br)c(C(F)F)c1Br` [II.078] was 2.26^[a]; that for `COC(=O)c1sc(C#N)c(Cl)c1Cl` [II.079] was 2.99^[a]; that for `COC(=O)c1sc(C#N)c(Br)c1Cl` [II.080] was 3.02^[a].
Regarding `O=C(O)c1cc(Br)c(C(F)(F)F)s1` [II.081], the LogP in data set [3] (setting [6]) was 2.46^[a].
On to `CCOC(=O)c1cc(Br)c(C(F)(F)F)s1` [II.082], for which the LogP in data set [3] (setting [6]) was 4.40^[a].
Take `N#Cc1c(C(=O)O)sc(Cl)c1Br` [II.083]: in data set [3] (setting [6]), the LogP is 1.70^[a].
`COC(=O)c1sc(C)c(Br)c1F` [II.084]: the LogP in data set [3] (setting [6]) was 3.15^[a].
On to `COC(=O)c1sc(Cl)c(Cl)c1C#N` [II.085, methyl 4,5-dichloro-3-cyanothiophene-2-carboxylate], for which the inhibition at 10 ppm in data set [1] is not above 30%. Moreover, the inhibition at 20 ppm in data set [1] and in data set [2] was not above 30% throughout. Besides, the chromatographic logP in data set [3] (setting [6]) and in data set [3] (setting [7]) was 2.98 throughout.
For `COC(=O)c1sc(F)c(Br)c1Br` [II.086], the LogP in data set [3] (setting [6]) is 3.56^[a].
Same read-out and setting: then `N#Cc1sc(C(=O)O)c(Cl)c1Br` [II.087], with 1.55^[a]; and `N#Cc1sc(C(=O)O)c(Cl)c1Cl` [II.088], with 1.51^[a]; and `CCOC(=O)c1sc(Cl)c(Br)c1Cl` [II.089], with 4.62^[a].
Turning to `CCOC(=O)c1cc(C#N)c(Cl)s1` [II.090], in data set [3] (setting [6]), the LogP is 3.01^[a].
As for `CCOC(=O)c1sc(Br)c(C#N)c1Cl` [II.091], the LogP in data set [3] (setting [6]) is 3.44^[a].
Same read-out and setting: then `CCOC(=O)c1sc(C#N)c(Cl)c1Br` [II.092], with 3.56^[a].
The same measure, in the same setting: the value for `CCOC(=O)c1sc(Cl)c(C#N)c1Br` [II.093] was 3.46^[a]; that for `O=C(O)c1sc(F)c(Br)c1Br` [II.094] was 2.26^[a]; that for `COC(=O)c1sc(Cl)c(C#N)c1Br` [II.095] was 2.92^[a].
On the same count and under the same terms, then `COC(=O)c1sc(C#N)c(Cl)c1Br` [II.096], with 3.04^[a]; and `N#Cc1sc(C(=O)O)c(Br)c1Cl` [II.097], with 1.64^[a]; and `N#Cc1c(Cl)sc(C(=O)O)c1Br` [II.098], with 1.68^[a].
`O=C(O)c1sc(C(F)F)c(Br)c1Br` [II.099]: the LogP in data set [3] (setting [6]) is 2.51^[a].
Turning to `N#Cc1cc(C(=O)O)sc1Br` [II.100], the LogP in data set [3] (setting [6]) is 1.48^[a].
Take `Cc1c(C(=O)O)sc(F)c1Cl` [II.101]: the LogP in data set [3] (setting [6]) was 2.45^[a].
`Cc1c(C(=O)O)sc(F)c1Br` [II.102]: in data set [3] (setting [6]), the LogP was 2.53^[a].
For `N#Cc1c(C(=O)O)sc(Cl)c1Cl` [II.103, 4,5-dichloro-3-cyanothiophene-2-carboxylic acid], the chromatographic logP in data set [3] (setting [6]) and in data set [3] (setting [7]) was 1.61 throughout.
On to `N#Cc1c(C(=O)O)sc(Br)c1Br` [II.104], for which the LogP in data set [3] (setting [6]) was 1.71^[a].
Take `O=C(O)c1ccccc1O` [Salicylic acid]: the relative fluorescence value in data set [4] and in data set [5] was 2.70 each time.
